Tested on: HT29 human colorectal adenocarcinoma cell line
Assay: cell proliferation assay (Cell Titer-Glo luminescent cell viability assay)
Assay type: cell-based
Details: HT-29, cell proliferative assay, HT29 cells, 72 hr treatment, values given as ranges, read-out: pIC50 (converted)
In short: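 Cells grown in DMEM with 10% FBS and exposed to compounds for 72 h. Viability read by CellTiter-Glo luminescence, expressed as percentage of DMSO-treated cells.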

Structure (SMILES)	IC50 [nM]
C=CCC1CN(C2CCCCC2)c2nc(Nc3ccc(C(=O)N[C@H]4CCN(C)C4)cc3OC)ncc2N(C)C1=O (stereo partly drawn) [Compound 229, 4-(7-allyl-9-cyclohexyl-5-methyl-6-oxo-6,7,8,9-tetrahydro-5H-pyrimido[4,5-b][1,4]diazepin-2-ylamino)-3-methoxy-N-((S)-1-methylpyrrolidin-3-yl)benzamide]	1 to 2.51
C=CCC1CN(C2CCCCC2)c2nc(Nc3ccc(C(=O)N[C@@H]4CCN(C)C4)cc3OC)ncc2N(C)C1=O (stereo partly drawn) [Compound 230, 4-(7-allyl-9-cyclohexyl-5-methyl-6-oxo-6,7,8,9-tetrahydro-5H-pyrimido[4,5-b][1,4]diazepin-2-ylamino)-3-methoxy-N-((R)-1-methylpyrrolidin-3-yl)benzamide]	> 10
C=C(F)CC1CN(C2CCCC2)c2nc(Nc3ccc(C(=O)NC4CCN(C)CC4)cc3OC)ncc2N(C)C1=O (stereo not drawn) [Compound 231, 4-(9-cyclopentyl-7-(2-fluoroallyl)-5-methyl-6-oxo-6,7,8,9-tetrahydro-5H-pyrimido[4,5-b][1,4]diazepin-2-ylamino)-3-methoxy-N-(1-methylpiperidin-4-yl)benzamide]	> 10
C=CC1(C)CN(C2CCCC2)c2nc(Nc3ccc(C(=O)NC4CCN(C)CC4)cc3OC)ncc2N(C)C1=O (stereo not drawn) [Compound 239, 4-(9-cyclopentyl-5,7-dimethyl-6-oxo-7-vinyl-6,7,8,9-tetrahydro-5H-pyrimido[4,5-b][1,4]diazepin-2-ylamino)-3-methoxy-N-(1-methylpiperidin-4-yl)benzamide]	3.16 to 10
C=C[C@]1(C)CN(C2CCCC2)c2nc(Nc3ccc(C(=O)NC4CCN(C)CC4)cc3OC)ncc2N(C)C1=O [Compound 240, (R)-4-(9-cyclopentyl-5,7-dimethyl-6-oxo-7-vinyl-6,7,8,9-tetrahydro-5H-pyrimido[4,5-b][1,4]diazepin-2-ylamino)-3-methoxy-N-(1-methylpiperidin-4-yl)benzamide]	3.16 to 10
C=C[C@@]1(C)CN(C2CCCC2)c2nc(Nc3ccc(C(=O)NC4CCN(C)CC4)cc3OC)ncc2N(C)C1=O [Compound 241, (S)-4-(9-cyclopentyl-5,7-dimethyl-6-oxo-7-vinyl-6,7,8,9-tetrahydro-5H-pyrimido[4,5-b][1,4]diazepin-2-ylamino)-3-methoxy-N-(1-methylpiperidin-4-yl)benzamide]	> 10
C=CC1(C)CN(C2CCCC2)c2nc(Nc3ccc(C(=O)NN4CCN(C)CC4)cc3OC)ncc2N(C)C1=O (stereo not drawn) [Compound 242, 4-(9-cyclopentyl-5,7-dimethyl-6-oxo-7-vinyl-6,7,8,9-tetrahydro-5H-pyrimido[4,5-b][1,4]diazepin-2-ylamino)-3-methoxy-N-(4-methylpiperazin-1-yl)benzamide]	> 10
C=C[C@]1(C)CN(C2CCCC2)c2nc(Nc3ccc(C(=O)NN4CCN(C)CC4)cc3OC)ncc2N(C)C1=O [Compound 243, (R)-4-(9-cyclopentyl-5,7-dimethyl-6-oxo-7-vinyl-6,7,8,9-tetrahydro-5H-pyrimido[4,5-b][1,4]diazepin-2-ylamino)-3-methoxy-N-(4-methylpiperazin-1-yl)benzamide]	< 1
C=C[C@@]1(C)CN(C2CCCC2)c2nc(Nc3ccc(C(=O)NN4CCN(C)CC4)cc3OC)ncc2N(C)C1=O [Compound 244, (S)-4-(9-cyclopentyl-5,7-dimethyl-6-oxo-7-vinyl-6,7,8,9-tetrahydro-5H-pyrimido[4,5-b][1,4]diazepin-2-ylamino)-3-methoxy-N-(4-methylpiperazin-1-yl)benzamide]	> 10
C=CC1(C)CN(C2CCCC2)c2nc(Nc3ccc(C(=O)N[C@@H]4CCCNC4)cc3OC)ncc2N(C)C1=O (stereo partly drawn) [Compound 245, 4-(9-cyclopentyl-5,7-dimethyl-6-oxo-7-vinyl-6,7,8,9-tetrahydro-5H-pyrimido[4,5-b][1,4]diazepin-2-ylamino)-3-methoxy-N-((R)-piperidin-3-yl)benzamide]	3.16 to 10
C=CC1(C)CN(C2CCCC2)c2nc(Nc3ccc(C(=O)N[C@H]4CCCNC4)cc3OC)ncc2N(C)C1=O (stereo partly drawn) [Compound 246, 4-(9-cyclopentyl-5,7-dimethyl-6-oxo-7-vinyl-6,7,8,9-tetrahydro-5H-pyrimido[4,5-b][1,4]diazepin-2-ylamino)-3-methoxy-N-((S)-piperidin-3-yl)benzamide]	1 to 2.51
C=CC1(C)CN(C2CCCC2)c2nc(Nc3ccc(C(=O)NC4CN(C)C4)cc3OC)ncc2N(C)C1=O (stereo not drawn) [Compound 247, 4-(9-cyclopentyl-5,7-dimethyl-6-oxo-7-vinyl-6,7,8,9-tetrahydro-5H-pyrimido[4,5-b][1,4]diazepin-2-ylamino)-3-methoxy-N-(1-methylazetidin-3-yl)benzamide]	3.16 to 10
